Measurements: patent publication US20060008891A1, “Cathepsin G-related peptides as modulators of formylpeptide receptors (FPR)” (The Government of USA as repersented by the Secretary, …, priority 2004, published 2006)
“Also recorded” adds a separate entry of the source. Blank lines part the entries; values can stand above or below the molecule they belong to.

Key:
[1] = system: PKCα/β; assay: PKCα/β translocation in ETFR cells; type: cell-based, rat; settings: 100 nM fMLF, 10 μg/ml CaG or PMA 500 nM, 37° C. 10 min
Method: (§1) ETFR cells were seeded on coverslips and cultured overnight in DMEM containing 1% FCS at 37° C. After further culture in FCS-free DMEM for 3 h, cells were treated with stimulants for indicated time periods at 37° C. and were then fixed in 4% paraformaldehyde for 5 min at room temperature. The cells were permeabilized with 0.2% Tween 20 for 30 min at 4° C. and the reaction was blocked with 5% goat normal serum for 15 min at room temperature. The rabbit anti-PKCα/β, δ, and ξ, antibodies (1:1000 in DPBS) were applied separately for 1 h at room temperature. After three rinses with DPBS, the cells were stained with FITC-labeled goat anti-rabbit secondary antibody (PharMingen, 1:1000 in DPBS) for 1 h at room temperature. The coverslips were mounted with an anti-fade, water-based mounting medium with Propidium Iodide (PI) (Vector Lab, Burlingamem, Calif.) and analyzed under a laser scanning confocal fluorescence microscope (Zeiss LSM510 NLO Meta, Jena, Germany). Excitation wavelengths 488 (for FITC) and 568 (for PI) nm were used to generate fluorescence emission in green and red, respectively.

[2] = system: PKCδ; assay: PKCδ translocation in ETFR cells; type: cell-based, rat; settings: 100 nM fMLF, 10 μg/ml CaG or PMA 500 nM, 37° C. 10 min
Method: as §1, with “The cells were permeabilized with 0.2% Tween 20 for 30 min at 4° C. and the reaction was blocked with 5% goat normal serum for 15 min at room temperature.” left out, “Germany).” for “Germany). Excitation wavelengths 488 (for FITC) and 568 (for PI) nm were used to generate fluorescence emission in green and red, respectively.”

[3] = system: PKC isozymes; assay: PKC translocation in parental RBL cells; type: cell-based, rat; settings: 100 nM fMLF, 10 μg/ml CaG or PMA 500 nM, 37° C. 10 min
[4] = system: PKCζ; assay: PKCζ translocation in ETFR cells (confocal microscopy); type: cell-based, rat; settings: 100 nM fMLF, 10 μg/ml CaG or PMA 500 nM, 37° C. 10 min
Method: as §1

[5] = system: monocytes; assay: Chemotaxis assay, monocytes; type: cell-based, human; settings: pre-incubation fMLF 100 nM or MMK-1 5 μM, 37° C. 30 min, washing; CaG 10 μg/ml
Method: Human PBMC were isolated from leukopacks obtained through the courtesy of Transfusion Medicine Department, National Institutes of Health Clinical Center (Bethesda, Md.) by Ficoll-Hypaque density gradient centrifugation. Monocytes were purified from human PBMC by Percoll gradient to yield>90% pure preparations. […] H. Ali and R. Snyderman, Duke University (Durham, N.C.) and maintained in the presence of 0.8 mg/ml geneticin (G418, Life Technologies, Rockville, Md.) in DMEM supplemented with 10% FCS. B. Chemotaxis assay Migration of phagocytes and ETFR cells was assessed using a 48-well microchemotaxis chamber (Neuroprobe, Cabin John, Md.) as previously described (Hu et al. (2001) J Leukoc Biol 70 15512). Briefly, different concentrations of stimulants were placed in the wells of the lower compartment of the chamber, and 50 μl cells (1.5×10^6 cells/ml for monocyte and neutrophil, 1×10^6 ETFR cells/ml) were added to the wells of the upper compartment. The lower and upper compartments were separated by either a 5-μm (for monocyte) or a 10-μm pore size, collagen-coated (for ETFR cells) polycarbonate filter (Osmonics, Livermore, Calif.). After incubation at 37° C. in humidified air with 5% CO2 (60 min for neutrophils, 90 min for monocytes, 4.5 h for ETFR cells), the filter was removed and stained, and the cells migrating across the filter were counted with light microscopy. The results are presented as the mean number of cells (±SD) in three high power fields (HPFs). […] After thorough washing with cold medium (RPMI 1640, 1% BSA), the cells were resuspended and assayed. To measure the effect of various signaling inhibitors, unless otherwise indicated, the cells were pre-incubated at 37° C. for 60 min with the inhibitors, and were then added to the upper wells of the chemotaxis chamber.

[6] = system: ERK1/2; assay: Phosphorylation of ERK1/2 in ETFR cells (Western blot); type: cell-based, rat; settings: ETFR cells; fMLF at 100 nM
Method: ETFR cells were plated in Petri dishes and cultured in DMEM at 37° C. in humidified 5% CO2 atmosphere for 48 h. After further culture in serum-free DMEM overnight, the cells were treated with stimulants for indicated time periods. The reaction was stopped by adding 1 ml ice-cold PBS, and the cells were lysed in 1×SDS lysis buffer (62.5 mM Tris-HCl, 2% w/v SDS, 10% glycerol, 50 mM DTT, pH 6.8) and harvested into tubes for sonication. Proteins (50 μg for each sample) were resolved by SDS-PAGE and transferred onto nitrocellulose membranes (Bio-Rad, Hercules, Calif.). The membranes were blocked for 2 h at room temperature in 3% non-fat milk prepared in Tris-buffered saline-T (10 mM Tris-HCl, pH 7.5, 150 mM NaCl, 0.1% Tween 20) and probed with anti-p-ERK1/2, p-p38 MAPK, or p-Akt (1:1000) at room temperature for 1-2 h or at 4° C. overnight. The membranes were then washed and incubated with horseradish peroxidase-conjugated secondary antibodies diluted in Tris-buffered saline-T for 1 h at room temperature. The immune complexes on the membranes were visualized using ECL reagents. Total ERK1/2, p38 MAPK, and Akt were visualized by stripping the same membrane and probing with antibodies against total ERK1/2, p38 MAPK, and Akt.

[7] = system: parental RBL cells; assay: Chemotaxis assay, parental RBL cells; type: cell-based, rat; settings: parental RBL cells without FPR
Method: Human PBMC were isolated from leukopacks obtained through the courtesy of Transfusion Medicine Department, National Institutes of Health Clinical Center (Bethesda, Md.) by Ficoll-Hypaque density gradient centrifugation. Monocytes were purified from human PBMC by Percoll gradient to yield>90% pure preparations. […] H. Ali and R. Snyderman, Duke University (Durham, N.C.) and maintained in the presence of 0.8 mg/ml geneticin (G418, Life Technologies, Rockville, Md.) in DMEM supplemented with 10% FCS. B. Chemotaxis assay Migration of phagocytes and ETFR cells was assessed using a 48-well microchemotaxis chamber (Neuroprobe, Cabin John, Md.) as previously described (Hu et al. (2001) J Leukoc Biol 70 15512). Briefly, different concentrations of stimulants were placed in the wells of the lower compartment of the chamber, and 50 μl cells (1.5×10^6 cells/ml for monocyte and neutrophil, 1×10^6 ETFR cells/ml) were added to the wells of the upper compartment. The lower and upper compartments were separated by either a 5-μm (for monocyte) or a 10-μm pore size, collagen-coated (for ETFR cells) polycarbonate filter (Osmonics, Livermore, Calif.). After incubation at 37° C. in humidified air with 5% CO2 (60 min for neutrophils, 90 min for monocytes, 4.5 h for ETFR cells), the filter was removed and stained, and the cells migrating across the filter were counted with light microscopy. […]

[8] = target: human formylpeptide receptor (FPR), native or wild type, on cells (human) (UniProt P21462); assay: displacement of 3 nM ^3[H]-fMLF from human monocytes, filter binding
[9] = target: epitope-tagged human FPR stably expressed on rat basophilic leukemia (RBL) cells (ETFR cells) (human) (UniProt P21462); assay: displacement of 3 nM ^3[H]-fMLF from ETFR cells, filter binding
[10] = target: T1, human formylpeptide receptor (FPR), native or wild type, on cells, P21462
T1 chain: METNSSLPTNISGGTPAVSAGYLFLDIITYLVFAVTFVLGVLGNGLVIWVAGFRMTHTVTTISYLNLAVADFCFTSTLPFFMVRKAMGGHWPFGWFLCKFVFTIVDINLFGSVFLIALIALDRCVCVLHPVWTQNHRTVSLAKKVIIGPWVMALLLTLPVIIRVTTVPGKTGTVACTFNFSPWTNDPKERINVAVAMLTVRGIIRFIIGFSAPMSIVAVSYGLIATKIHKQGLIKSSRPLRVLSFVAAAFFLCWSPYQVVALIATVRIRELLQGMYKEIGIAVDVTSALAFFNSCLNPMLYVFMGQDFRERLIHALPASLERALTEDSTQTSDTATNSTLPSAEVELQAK

[11] = target: T2, epitope-tagged human FPR stably expressed on rat basophilic leukemia (RBL) cells (ETFR cells), P21462
T2 chain: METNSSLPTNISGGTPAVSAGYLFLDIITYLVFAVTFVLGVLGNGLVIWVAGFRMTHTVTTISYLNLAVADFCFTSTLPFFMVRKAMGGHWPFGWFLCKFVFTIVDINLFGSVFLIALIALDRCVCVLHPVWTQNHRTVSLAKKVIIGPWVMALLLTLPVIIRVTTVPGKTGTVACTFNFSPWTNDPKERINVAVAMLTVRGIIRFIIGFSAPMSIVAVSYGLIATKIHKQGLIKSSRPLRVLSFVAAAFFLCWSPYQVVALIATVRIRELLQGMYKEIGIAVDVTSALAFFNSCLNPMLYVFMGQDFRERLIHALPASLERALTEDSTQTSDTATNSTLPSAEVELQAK

[12] = target: T3, epitope-tagged human FPR stably expressed on rat basophilic leukemia (RBL) cells (ETFR cells) (human, UniProt P21462 1-350); assay: displacement of 3 nM ^3[H]-fMLF from ETFR cells by unlabeled CaG, filter binding
T3 construct: whole, on cells; also called RBL cells transfected with FPR; not shown: neither its identity nor its position on FPR is stated
T3 sequence (looked up): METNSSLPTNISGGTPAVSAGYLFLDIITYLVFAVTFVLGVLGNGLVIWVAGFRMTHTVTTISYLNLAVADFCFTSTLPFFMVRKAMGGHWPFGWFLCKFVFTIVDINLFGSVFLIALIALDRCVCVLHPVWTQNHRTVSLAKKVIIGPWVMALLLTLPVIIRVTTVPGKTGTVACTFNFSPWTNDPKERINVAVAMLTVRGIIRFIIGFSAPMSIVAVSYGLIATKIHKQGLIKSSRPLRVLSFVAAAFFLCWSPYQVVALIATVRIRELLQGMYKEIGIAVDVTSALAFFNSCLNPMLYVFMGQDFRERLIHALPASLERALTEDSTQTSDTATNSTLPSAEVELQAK

[13] = target: T3, epitope-tagged human FPR stably …; assay: binding of ^125I-CaG (25 nM) to ETFR cells with increasing unlabeled ligand, analysed with the LIGAND program
Method: After incubation and rotation at room temperature for 1 h, the cells were pelleted through a 10% sucrose/PBS cushion for 1 min at 10,000 g. The supernatant was removed and the radioactivity associated with cell pellets was measured in a γ counter (CliniGamma, Pharmacia Biotech Inc.). The binding data were analyzed with a Macintosh computer-aided program LIGAND (Dr. P. Munson, Division of Computer Research and Technology, NIH, Bethesda, Md.).

[14] = target: T4, human formylpeptide receptor (FPR), native or wild type, on cells (human, UniProt P21462 1-350); assay: displacement of 3 nM ^3[H]-fMLF from human monocytes by unlabeled CaG, filter binding
T4 construct: whole, on cells; Used for assays on human monocytes and neutrophils (endogenous FPR) and on HEK293 cells transfected with wild type FPR
T4 sequence (looked up): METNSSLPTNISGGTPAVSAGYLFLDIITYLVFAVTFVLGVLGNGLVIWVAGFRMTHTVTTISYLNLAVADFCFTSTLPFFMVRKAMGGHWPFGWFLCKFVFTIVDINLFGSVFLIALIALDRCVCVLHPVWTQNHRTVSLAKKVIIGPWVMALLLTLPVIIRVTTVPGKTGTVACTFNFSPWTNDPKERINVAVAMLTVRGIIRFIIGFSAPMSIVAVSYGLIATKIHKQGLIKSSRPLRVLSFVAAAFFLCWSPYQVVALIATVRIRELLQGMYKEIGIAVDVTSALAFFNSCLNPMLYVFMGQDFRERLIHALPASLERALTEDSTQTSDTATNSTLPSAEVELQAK
From the text: The cells were then filtered onto Whatman paper discs, which were air-dried and measured for Remission.

Molecule: CCCCCCCCCCCCCC(=O)O[C@@H]1[C@@H](C)[C@@]2(O)[C@@H](C=C(CO)C[C@]3(O)C(=O)C(C)=C[C@@H]23)[C@@H]2C(C)(C)[C@]12OC(C)=O [PMA]
- translocation of PKCα/β [1]: activated these PKC isozymes in both ETFR and RBL cells; also recorded: induced translocation of PKCζ, PKCα/β, and PKCδ in ETFR and RBL cells
- translocation of PKCδ [2]: induced translocation of PKCζ, PKCα/β, and PKCδ in ETFR and RBL cells
- PKC translocation in parental RBL cells [3]: activated these PKC isozymes in both ETFR and RBL cells; also recorded: induced translocation of PKCζ, PKCα/β, and PKCδ in ETFR and RBL cells
- translocation of PKCζ [4]: activated these PKC isozymes in both ETFR and RBL cells; also recorded: induced translocation of PKCζ, PKCα/β, and PKCδ in ETFR and RBL cells

Molecule: CSCC[C@H](NC=O)C(=O)N[C@@H](CC(C)C)C(=O)N[C@@H](Cc1ccccc1)C(=O)O [fMLF, formyl-methionyl-leucyl-phyenyalanine]
- attenuation of monocyte chemotaxis to CaG after pre-incubation with agonist [5]: attenuated monocyte response to CaG
- translocation of PKCα/β [1]: promoted the translocation of not only PKCξ, but also PKCα/β
- time of maximal effect on p-ERK [6]: 1 min
- migration of parental RBL cells [7]: Neither CaG nor fMLF induced migration of parental RBL cells
- translocation of PKCδ [2]: did not induce translocation of PKCδ
- PKC translocation in parental RBL cells [3]: Neither CaG nor fMLF stimulated PKC translocation in parental RBL cells
- translocation of PKCζ [4]: promoted the translocation of not only PKCξ, but also PKCα/β

Molecule: synthetic N-formyl peptide fMLF (formyl-methionyl-leucyl-phenylalanine)
- IC50 [8]: 3 nM
- IC50 [9]: 3 nM

B1: Cathepsin G (CaG), purified from neutrophil granules (protein)
chain: IIGGRESRPHSRPYMAYLQIQSPAGQSRCGGFLVREDFVLTAAHCWGSNINVTLGAHNIQRRENTQQHITARRAIRHPQYNQRTIQNDIMLLQLSRRVRRNRNVNPVALPRAQEGLRPGTLCTVAGWGRVSMRRGTDTLREVQLRVQRDRQCLRIFGSYDPRRQICVGDRRERKAAFKGDSGGPLLCNNVAHGIVSYGKSSGVPPEVFTRVSSFLPWIRTTMRS
- monocyte migration (chemotaxis), concentration of maximal activity [10]: CaG dose-dependently induced monocyte migration (FIG. 1A), which reached maximal activity at a concentration of 5 µg/ml of the protein (200 nM)
- phosphorylation of ERK1/2, p38 MAPK and Akt (Western blot) [11]: CaG also positively and rapidly (within 1-5 min) activated ERK1/2 (FIG. 5 A), p38 MAPK (FIG. 5 C), and Akt (FIG. 5 D)

- IC50 [12]: 100 nM
- Kd [13]: 85 nM
- IC50 [14]: 100 nM
B2: Cathepsin G (CaG), purified from neutrophil granules (enzyme)
chain: IIGGRESRPHSRPYMAYLQIQSPAGQSRCGGFLVREDFVLTAAHCWGSNINVTLGAHNIQRRENTQQHITARRAIRHPQYNQRTIQNDIMLLQLSRRVRRNRNVNPVALPRAQEGLRPGTLCTVAGWGRVSMRRGTDTLREVQLRVQRDRQCLRIFGSYDPRRQICVGDRRERKAAFKGDSGGPLLCNNVAHGIVSYGKSSGVPPEVFTRVSSFLPWIRTTMRS
modifications: iodinated (^125I, chloramine-T method) in the direct binding assay only
